# From the supplement of paper PMC10307832
# Experiments:
# Test in all cases: relative viability (nuclei count vs DMSO), 5 days (fraction); higher = more cells survive
# Adavosertib = compound: C=CCn1c(=O)c2cnc(Nc3ccc(N4CCN(C)CC4)cc3)nc2n1-c1cccc(C(C)(C)O)n1 [Adavosertib]
# In short: (§1)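 Lung cancer cell lines received five library-drug doses (not always all listed) spaced by √10, pinned on vehicle-anchored 1536-well plates after an overnight stay at 37 °C. Five days later, with no medium change, nuclei were Hoechst-stained, imaged at 4× and counted with MetaXpress. Viability is treated-well nuclei relative to vehicle-well nuclei, as a median across plates. Passing plates had control CV below 25% and at least one doubling.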
# Nelarabine = compound: COc1nc(N)nc2c1ncn2[C@@H]1O[C@H](CO)[C@@H](O)[C@@H]1O [Nelarabine]
# In short: as §1
# Nelarabine + Pemetrexed = compound: COc1nc(N)nc2c1ncn2[C@@H]1O[C@H](CO)[C@@H](O)[C@@H]1O [Nelarabine] + Nc1nc2[nH]cc(CCc3ccc(C(=O)N[C@@H](CCC(=O)O)C(=O)O)cc3)c2c(=O)[nH]1 [Pemetrexed] (partner 0.2 µM)
# In short: (§2)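 Relative viability was taken as the ratio of nuclei in treated wells to nuclei in vehicle wells. Lung cancer cell lines in 1536-well plates received compounds by pin tool one day after seeding, either one drug alone or a fixed anchor-drug dose plus five library-drug doses (not always all listed) in √10 steps. Nuclei were counted on 4× images after 5 days of treatment, and values are medians of duplicate plates.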
# Adavosertib + OSI-027 = compound: C=CCn1c(=O)c2cnc(Nc3ccc(N4CCN(C)CC4)cc3)nc2n1-c1cccc(C(C)(C)O)n1 [Adavosertib] + COc1cccc2cc(-c3nc([C@H]4CC[C@H](C(=O)O)CC4)n4ncnc(N)c34)[nH]c12 [OSI-027] (partner 0.5 µM)
# In short: as §2
Cell Line,relative viability (Adavosertib; 0.01 µM),relative viability (Adavosertib; 0.03162 µM),relative viability (Adavosertib; 0.1 µM),relative viability (Adavosertib; 0.3162 µM),relative viability (Nelarabine; 0.01 µM),relative viability (Nelarabine; 0.03162 µM),relative viability (Nelarabine; 0.1 µM),relative viability (Nelarabine; 0.3162 µM),relative viability (Nelarabine; 1 µM),relative viability (Nelarabine + Pemetrexed; first compound 0.01 µM),relative viability (Nelarabine + Pemetrexed; first compound 0.03162 µM),relative viability (Nelarabine + Pemetrexed; first compound 0.1 µM),relative viability (Nelarabine + Pemetrexed; first compound 0.3162 µM),relative viability (Nelarabine + Pemetrexed; first compound 1 µM),relative viability (Adavosertib + OSI-027; first compound 0.01 µM),relative viability (Adavosertib + OSI-027; first compound 0.03162 µM),relative viability (Adavosertib + OSI-027; first compound 0.1 µM),relative viability (Adavosertib + OSI-027; first compound 0.3162 µM)
NCI-H520,0.948,0.876,1,0.879,1.2,1.02,1.1,0.941,1.01,0.768,0.584,0.687,0.842,0.786,0.298,0.262,0.212,0.224
HCC-44,0.927,0.987,0.971,0.984,1,0.949,0.997,0.947,0.867,0.642,0.662,0.646,0.69,0.633,0.525,0.484,0.538,0.578
NCI-H2087,0.968,0.95,1.08,1.13,1.1,0.981,1.05,1.22,0.881,0.782,0.67,0.723,0.7,0.717,0.591,0.685,0.603,0.478
CAL-12T,0.948,1.07,1.1,0.856,1.15,1.02,0.969,0.99,1.05,1.55,1.19,1.42,1.2,1.22,0.568,0.711,0.582,0.235
NCI-H1355,0.991,0.99,0.948,0.986,1.18,0.875,1.03,1.04,1.02,1.12,1.05,1.02,1.15,1.08,0.396,0.387,0.364,0.355
HARA,0.929,1.04,1.01,0.897,1.2,1.14,0.97,1.06,1.01,0.233,0.28,0.225,0.288,0.226,0.485,0.486,0.591,0.368
NCI-H2085,0.991,1.01,1,1.03,1,1.04,0.963,0.995,0.958,0.906,0.865,0.93,0.871,0.87,0.857,0.808,0.689,0.87
IA-LM,0.927,0.953,1,1.03,1.1,1.12,1.06,1.07,0.971,–,–,–,–,–,–,–,–,–
LCLC-103H,1.03,0.981,0.954,0.985,1.15,1.01,1.03,1.03,1.07,0.467,0.447,0.464,0.446,0.478,0.458,0.441,0.428,0.417
NCI-H2405,0.924,0.993,1.02,1.04,1.07,1.02,0.924,0.982,0.947,0.939,1.11,1.09,1.16,1.01,0.668,0.667,0.669,0.628
NCI-H1666,0.975,1,1.05,0.997,1.05,1.15,0.978,0.97,0.967,0.957,0.919,0.872,0.936,0.834,0.797,0.851,0.847,0.744
Calu-6,1.03,1.03,1.05,0.6,1.19,1.13,1.04,1.1,1.1,–,–,–,–,–,–,–,–,–
BEN,0.886,1.04,1.06,1.09,1.05,1.05,1.02,1.19,1.03,0.788,0.822,0.765,0.837,0.752,0.293,0.333,0.297,0.273
201T,0.973,1.02,0.981,1.04,1.03,0.907,1.04,1.02,0.999,0.378,0.279,0.349,0.417,0.444,0.667,0.734,0.669,0.666
NCI-H322M,0.85,0.953,0.845,0.61,0.963,0.896,0.884,0.937,0.923,0.601,0.565,0.631,0.653,0.61,0.621,0.547,0.451,0.312
NCI-H1792,0.749,0.915,0.75,0.895,0.973,0.928,1.16,1.06,0.855,1.09,0.658,1.58,0.937,0.824,–,0.701,1.12,0.751
NCI-H358,0.838,0.785,0.752,0.467,1.1,0.928,0.804,1.06,1.05,0.181,0.227,0.161,0.172,0.328,0.786,0.913,0.637,0.326
NCI-H2347,1.06,1.05,1.09,0.983,1.13,0.904,1.04,1.02,1.01,0.423,0.425,0.427,0.447,0.397,0.515,0.414,0.473,0.298
NCI-H1793,0.787,0.835,0.885,1.09,1.09,0.775,1.1,1.09,1,1.04,–,1.07,0.962,0.88,0.282,0.289,0.26,0.277
LU99A,1.03,0.977,0.894,0.924,0.965,0.952,0.956,0.946,1.07,0.197,0.154,0.173,0.192,0.223,0.314,0.282,0.307,0.298

Cell Line,relative viability (Adavosertib; 0.01 µM),relative viability (Adavosertib; 0.03162 µM),relative viability (Adavosertib; 0.1 µM),relative viability (Adavosertib; 0.3162 µM),relative viability (Nelarabine; 0.01 µM),relative viability (Nelarabine; 0.03162 µM),relative viability (Nelarabine; 0.1 µM),relative viability (Nelarabine; 0.3162 µM),relative viability (Nelarabine; 1 µM),relative viability (Nelarabine + Pemetrexed; first compound 0.01 µM),relative viability (Nelarabine + Pemetrexed; first compound 0.03162 µM),relative viability (Nelarabine + Pemetrexed; first compound 0.1 µM),relative viability (Nelarabine + Pemetrexed; first compound 0.3162 µM),relative viability (Nelarabine + Pemetrexed; first compound 1 µM),relative viability (Adavosertib + OSI-027; first compound 0.01 µM),relative viability (Adavosertib + OSI-027; first compound 0.03162 µM),relative viability (Adavosertib + OSI-027; first compound 0.1 µM),relative viability (Adavosertib + OSI-027; first compound 0.3162 µM)
NCI-H661,0.996,1.03,1.08,0.769,1.07,1.14,1,1.04,0.999,0.963,1.07,0.865,0.899,0.899,0.762,0.723,0.685,0.284
SW 900,0.738,1.07,0.885,0.49,0.998,0.897,1.06,1,0.896,0.53,0.538,0.482,0.526,0.506,–,0.554,0.494,0.436
HCC-827,1.04,1.06,1.08,1.03,1.03,0.93,0.97,0.828,0.823,0.231,0.235,0.27,0.287,0.231,0.779,0.832,0.738,0.724
A-427,1.02,1.02,1.05,0.894,1.06,1.08,1.04,1.05,0.938,1.04,1.05,1.11,0.984,0.838,0.472,0.411,0.481,0.268
EBC-1,0.974,1.02,1.07,0.971,1.19,1.14,1.05,1.01,0.975,–,–,–,–,–,–,–,–,–
NCI-H2009,1.02,1.01,1.07,1.02,1.23,1.07,1,1.02,1.03,1.09,1.05,1.07,1.08,1.11,0.698,0.644,0.651,0.366
EPLC-272H,0.853,0.961,0.757,0.497,1.01,1,0.878,0.952,0.881,0.3,0.288,0.308,0.289,0.378,0.31,0.279,0.242,0.208
LC-2-ad,0.979,1.02,1.01,1.13,1.14,1.05,0.984,1.05,0.989,0.304,0.249,0.267,0.286,0.275,0.834,0.94,0.892,0.694
HCC-366,1.04,1.05,0.998,1.01,1.28,0.865,0.982,1.08,1.02,0.204,0.146,0.202,0.225,0.22,0.964,1.02,0.897,0.889
RERF-LC-KJ,1.01,0.971,1.02,0.994,1.18,1.09,1.06,1.07,1.02,0.477,0.424,0.458,0.489,0.49,0.561,0.512,0.555,0.465
EKVX,0.975,0.967,0.955,1.1,1.09,0.898,0.857,1.09,0.968,0.431,0.436,0.417,0.506,0.46,0.729,0.77,0.679,0.651
NCI-H1395,0.83,0.901,0.887,0.775,0.997,0.821,1.02,0.928,0.842,0.818,0.755,1.21,0.773,0.707,0.69,0.727,0.656,0.492
LOU-NH91,0.956,0.992,0.974,0.918,0.948,0.944,0.935,1.02,0.956,0.385,0.35,0.442,0.329,0.381,0.65,0.707,0.742,0.677
NCI-H1623,0.895,0.915,0.949,1.01,0.869,1.12,0.965,0.979,0.931,–,–,–,–,–,0.427,0.446,0.389,0.431
A549,0.933,0.984,1,1.01,1.19,1.04,1.02,1,0.911,–,–,–,–,–,–,–,–,–
NCI-H727,0.961,0.898,1.03,0.936,1.22,0.891,0.856,0.97,0.896,–,–,–,–,–,0.599,0.546,0.523,0.575
NCI-H1703,1.29,0.892,1.08,0.249,1.3,1,1.06,1.06,0.953,–,–,–,–,–,–,–,–,–
NCI-H1299,1.03,0.999,1.04,0.789,1.07,1.07,1.04,1.07,1.03,–,–,–,–,–,–,–,–,–
ABC-1,0.885,0.893,0.948,0.96,1.1,0.911,0.988,1.11,0.943,–,–,–,–,–,0.411,0.406,0.405,0.419
